The target in data set [1] is T1, human liver GK (GST-hLGK1) (Homo sapiens, UniProt P35557).
T1 construct: with a BamHI site added to immediately before the initiation codon; made in house; host or cells: Escherichia coli BL21 (Stratagene), plasmid pGEX6P-2/hLGK1
T1 sequence (P35557 1-464 isoform P35557-3): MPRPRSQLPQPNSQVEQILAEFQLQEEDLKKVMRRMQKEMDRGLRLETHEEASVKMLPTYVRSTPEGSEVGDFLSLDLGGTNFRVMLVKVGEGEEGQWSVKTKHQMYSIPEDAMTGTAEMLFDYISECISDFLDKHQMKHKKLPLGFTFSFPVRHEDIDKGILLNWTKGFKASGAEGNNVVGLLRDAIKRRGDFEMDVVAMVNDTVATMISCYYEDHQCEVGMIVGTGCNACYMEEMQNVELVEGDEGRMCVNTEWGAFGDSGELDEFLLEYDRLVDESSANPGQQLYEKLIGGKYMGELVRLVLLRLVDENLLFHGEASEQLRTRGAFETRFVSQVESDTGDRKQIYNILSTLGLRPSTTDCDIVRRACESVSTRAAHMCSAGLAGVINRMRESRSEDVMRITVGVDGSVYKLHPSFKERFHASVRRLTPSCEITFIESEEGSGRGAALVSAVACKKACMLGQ
The data set is described as follows: Measurement of GK activation value. It counts as biochemical. The conditions noted are these: GST-hLGK1 6 μg/mL, 5 mmol/L D-glucose, 50 μmol/L Mant-ATP, 60 min at 37° C.; concentration at midpoint between maximum activity value and control activity value. As for the experimental part: GK enzyme reactions were performed in 50 mmol/L HEPES pH 7.4, 200 mmol/L KCl, 5 mmol/L MgCl2, 2 mmol/L DTT, containing 50 μmol/L 2′-(or -3′)-O—(N-methylanthraniloyl)adenosine 5′-triphosphate (Mant-ATP) (Jena Bioscience GmbH), 5 mmol/L D-glucose, 5% DMSO and 6 μg/mL GST-hLGK1 obtained in Reference Example 2A in a total volume 50 μL. The reactions were performed in 384 well black plates (Nalge Nunc International K.K.). Prior to the reaction, the enzyme and test compound were incubated for 10 min at 37° C., and 25 mM D-glucose solution (10 μL) was added to start the reaction.
After the incubation for 60 min at 37° C., the reaction was quenched by adding 25 μL of a quenching solution (containing 200 mM HEPES (pH 7.4), 20 mM MgCl2, 200 mM EDTA, 0.03% Triton-X 100, 0.3% Coating 3 reagent (Caliper Life Sciences, Inc.)).
Mant-ATP (substrate, 2′- (or -3′)-O—(N-methylanthraniloyl) adenosine 5′-triphosphate) and Mant-ADP (reaction resultant product) were separated from each well after the reaction by a microchip type capillary electrophoresis apparatus 250 HTS (Caliper Life Sciences, Inc.). The reaction rate [(reaction resultant product peak height)/(reaction resultant product peak height+substrate peak height)×100(%)] was calculated from the ratio of the substrate peak height and reaction resultant product peak height obtained by fluorescence detection (excitation wavelength 355 nm, measurement wavelength 460 nm) and used as the index of GK activity.
As a control group, the reaction rate was calculated in the same manner as above without the test compounds.
The percentage obtained by dividing the reaction rate of the well added with each concentration of the test compound (test compound addition group) by the reaction rate of the control group was taken as the GK activity value, and the concentration of the test compound at the midpoint between the maximum activity value of the test compound addition group and the control group activity value is shown as EC50 value.

For `CNC(=O)CC1CN=C(c2cc3cc(Oc4ccc(S(C)(=O)=O)nc4)cc(OC)c3[nH]2)S1` (single isomer, unassigned) [Example 31, 2-[2-(7-Methoxy-5-{[6-(methylsulfonyl)pyridin-3-yl]oxy}-1H-indol-2-yl)-4,5-dihydro-1,3-thiazol-5-yl]-N-methylacetamide], the melting point was 196 to 197 °C. Further, the EC50 in data set [1] turned out to be 28 nM.
On to `COCC(C)Oc1cc(Oc2ccc(S(C)(=O)=O)cc2)cc2cc(C3=NCC(CCO)S3)[nH]c12` (single isomer, unassigned) [Example 58, 2-(2-{7-(2-Methoxy-1-methylethoxy)-5-[4-(methylsulfonyl)phenoxy]-1H-indol-2-yl}-4,5-dihydro-1,3-thiazol-5-yl)ethanol], for which it took 15 nM to reach a half-maximal effect in data set [1] (EC50).
On the same count and under the same terms, the figure for `CC(C)Oc1cc(Oc2ccc(S(C)(=O)=O)cn2)cc2cc(C3=NCC(CC(C)(C)O)S3)[nH]c12` (single isomer, unassigned) [Example 65, 2-Methyl-1-{2-[7-(1-methylethoxy)-5-{[5-(methylsulfonyl)pyridin-2-yl]oxy}-1H-indol-2-yl]-4,5-dihydro-1,3-thiazol-5-yl}propan-2-ol] is 59 nM.
Take `COc1cc(Oc2ccc(S(C)(=O)=O)nc2)cc2cc(C3=NCC(CC(=O)NCC(C)(C)O)S3)[nH]c12` (single isomer, unassigned) [Example 74]: the melting point was in the range of 173 to 174 °C. The EC50 in data set [1] stood at 28 nM.
Turning to `CCOc1cc(Oc2ccc(S(C)(=O)=O)nc2)cc2cc(C3=NCC(CC(=O)NC)S3)[nH]c12` (single isomer, unassigned) [Example 98, 2-[2-(7-Ethoxy-5-{[6-(methylsulfonyl)pyridin-3-yl]oxy}-1H-indol-2-yl)-4,5-dihydro-1,3-thiazol-5-yl]-N-methylacetamide], the EC50 in data set [1] was 20 nM.
On to `CS(=O)(=O)c1ccc(Oc2cc(OCc3ccccc3)c3[nH]c(C4=NCC(CC(=O)O)S4)cc3c2)cc1` (centres unmarked) [Example 3, (2-{7-(Benzyloxy)-5-[4-(methylsulfonyl)phenoxy]-1H-indol-2-yl}-4,5-dihydro-1,3-thiazol-5-yl)acetic acid], for which the melting point fell in the range of 218 to 219 °C. The compound further had an EC50 in data set [1] of 55 nM.
In the same order, the values of `CS(=O)(=O)c1ccc(Oc2cc(OCc3cccc(Cl)n3)c3[nH]c(C4=NCC(CC(=O)O)S4)cc3c2)cc1` (centres unmarked) [Example 7, (2-{7-[(6-Chloropyridin-2-yl)methoxy]-5-[4-(methylsulfonyl)phenoxy]-1H-indol-2-yl}-4,5-dihydro-1,3-thiazol-5-yl)acetic acid] are 175 to 176 °C and 42 nM.
In the same order, the values of `Cn1ccnc1COc1cc(Oc2ccc(S(C)(=O)=O)cc2)cc2cc(C3=NCC(CC(N)=O)S3)[nH]c12` (centres unmarked) [Example 11, 2-(2-{7-[(1-Methyl-1H-imidazol-2-yl)methoxy]-5-[4-(methylsulfonyl)phenoxy]-1H-indol-2-yl}-4,5-dihydro-1,3-thiazol-5-yl)acetamide] are 130 to 131 °C and 52 nM.
The corresponding values for `CC(CO)Oc1cc(Oc2ccc(S(C)(=O)=O)cc2)cc2cc(C3=NCC(CCO)S3)[nH]c12` (centres unmarked) [Example 16, 2-({2-[5-(2-Hydroxyethyl)-4,5-dihydro-1,3-thiazol-2-yl]-5-[4-(methylsulfonyl)phenoxy]-1H-indole-7-yl}oxy)propan-1-ol] are 165 to 169 °C and 33 nM.
`CC(CO)Oc1cc(Oc2ccc(S(C)(=O)=O)cc2)cc2cc(C3=NCC(CC(N)=O)S3)[nH]c12` (centres unmarked) [Example 17, 2-(2-{7-(2-Hydroxy-1-methylethoxy)-5-[4-(methylsulfonyl)phenoxy]-1H-indol-2-yl}-4,5-dihydro-1,3-thiazol-5-yl)acetamide] returned a melting point of 137 to 142 °C. The compound also displayed an EC50 in data set [1] of 48 nM.
The corresponding values for `CS(=O)(=O)c1ccc(Oc2cc(OCC3CCOCC3)c3[nH]c(C4=NCC(CCO)S4)cc3c2)cc1` (centres unmarked) [Example 19, 2-(2-{5-[4-(Methylsulfonyl)phenoxy]-7-(tetrahydro-2H-pyran-4-ylmethoxy)-1H-indol-2-yl}-4,5-dihydro-1,3-thiazol-5-yl)ethanol] are 104 to 105 °C and 44 nM.
In the same order, the values of `COCCNC(=O)CC1CN=C(c2cc3cc(Oc4ccc(S(C)(=O)=O)nc4)cc(OC)c3[nH]2)S1` (centres unmarked) [Example 78, N-(2-Methoxyethyl)-2-[2-(7-methoxy-5-{[6-(methylsulfonyl)pyridin-3-yl]oxy}-1H-indol-2-yl)-4,5-dihydro-1,3-thiazol-5-yl]acetamide] are 175 to 176 °C and 37 nM.
The corresponding values for `COc1cc(Oc2ccc(S(C)(=O)=O)nc2)cc2cc(C3=NCC(CC(=O)N(C)C)S3)[nH]c12` (centres unmarked) [Example 79, 2-[2-(7-Methoxy-5-{[6-(methylsulfonyl)pyridin-3-yl]oxy}-1H-indol-2-yl)-4,5-dihydro-1,3-thiazol-5-yl]-N,N-dimethylacetamide] are 206 to 207 °C and 35 nM.
Compound `COc1cc(Oc2ccc(S(C)(=O)=O)nc2)cc2cc(C3=NCC(CC(=O)NC[C@H](C)O)S3)[nH]c12` (stereo partly drawn) [Example 80, N-[(2S)-2-Hydroxypropyl]-2-[2-(7-methoxy-5-{[6-(methylsulfonyl)pyridin-3-yl]oxy}-1H-indol-2-yl)-4,5-dihydro-1,3-thiazol-5-yl]acetamide] returned a melting point of 185 to 186 °C. Besides, the EC50 in data set [1] came out at 37 nM.
`COc1cc(Oc2ccc(S(C)(=O)=O)nc2)cc2cc(C3=NCC(CC(=O)NC[C@@H](C)O)S3)[nH]c12` (stereo partly drawn) [Example 81, N-[(2R)-2-Hydroxypropyl]-2-[2-(7-methoxy-5-{[6-(methylsulfonyl)pyridin-3-yl]oxy}-1H-indol-2-yl)-4,5-dihydro-1,3-thiazol-5-yl]acetamide]: the melting point was in the range of 185 to 186 °C. In data set [1], this compound displayed an EC50 of 38 nM.
The corresponding values for `COc1cc(Oc2ccc(S(C)(=O)=O)nc2)cc2cc(C3=NCC(CC(=O)N4CCOCC4)S3)[nH]c12` (centres unmarked) [Example 82, 7-Methoxy-5-{[6-(methylsulfonyl)pyridin-3-yl]oxy}-2-{5-[2-(morpholin-4-yl)-2-oxoethyl]-4,5-dihydro-1,3-thiazol-2-yl}-1H-indole] are 148 to 149 °C and 42 nM.

The EC50 is the concentration at which the effect is half-maximal. Broadly, the melting point is the temperature, or range, at which the solid turns liquid.

Values taken from US8673942B2, “Fused ring compounds and use thereof” (Takeda Pharmaceutical Company Limited, priority 2008, dated 2014).
